In patent US20230233569A1 (Revolution Medicines, Inc., priority 2020, published 2023):
Read-outs that look alike come from different tables or passages of the source. Blank lines part the entries; values can stand above or below the molecule they belong to.

Columns and labels:
Capan-1 (K-Ras G12V) = assay: CellTiter-Glo cell viability assay, 5-day treatment; type: cell-based; details: Homo sapiens, CAPAN-1, 120 h, 5-day treatment; read-out: Capan-1 Cell Viability assay data (K-Ras G12V, IC50)
Method in brief: (§1)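 Compounds were dispensed directly onto seeded cells and incubated for 5 days, then plates were equilibrated to room temperature for about 30 minutes before luminescence reading. Signals were expressed as percent of the mean DMSO control and fitted with a four-parameter logistic curve.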

KRAS G12V = KRAS G12V (Homo sapiens, UniProt P01116+P62937, G12V); assay: Disruption of BRAF RBD interaction with Ras (FRET / MOA assay, with Cyclophilin A); type: biochemical
Source text: (§2) This protocol may also be executed substituting other Ras proteins or nucleotides.
(§3) The purpose of this biochemical assay was to measure the ability of test compounds to facilitate ternary complex formation between a nucleotide-loaded K-Ras isoform and Cyclophilin A; the resulting ternary complex disrupts binding to a BRAF^RBD construct, inhibiting K-Ras signaling through a RAF effector. Data is reported as IC50 values.
(§4) Compound was present in plate wells as a 10-point 3-fold dilution series starting at a final concentration of 30 μM. After incubation at 25° C. for 3 hours, a mixture of Anti-His Eu-W1024 and anti-GST allophycocyanin was then added to assay sample wells at final concentrations of 10 nM and 50 nM, respectively, and the reaction incubated for an additional 1.5 hours. […] Compounds that facilitate disruption of a K-Ras:RAF complex were identified as those eliciting a decrease in the TR-FRET ratio relative to DMSO control wells.
as §3, with “BRAF^RBDD” for “BRAF^RBD”

NCI-H358 (K-Ras G12C) = assay: CellTiter-Glo cell viability assay, 5-day treatment; type: cell-based; details: Homo sapiens, NCI-H358, 120 h, 5-day treatment; read-out: H358 Cell Viability assay data (K-Ras G12C, IC50)
Method in brief: as §1

KRAS G12C = KRAS G12C (Homo sapiens, UniProt P01116+P62937, G12C); assay: Disruption of BRAF RBD interaction with Ras (FRET / MOA assay, with Cyclophilin A); type: biochemical
Source text: as §2, §3, §4
as §3, with “BRAF^RBDD” for “BRAF^RBD”

KRAS G12D = KRAS G12D (Homo sapiens, UniProt P01116+P62937, G12D); assay: as above; type: biochemical
Source text: as §2, §3, §4
as §3, with “BRAF^RBDD” for “BRAF^RBD”

KRAS G12S = KRAS G12S (Homo sapiens, UniProt P01116+P62937, G12S); assay: as above; type: biochemical
Source text: as §2, §3, §4
as §3, with “BRAF^RBDD” for “BRAF^RBD”

KRAS G13C = KRAS G13C (Homo sapiens, UniProt P01116+P62937, G13C); assay: as above; type: biochemical
Source text: as §2, §3, §4
as §3, with “BRAF^RBDD” for “BRAF^RBD”

KRAS G13D = KRAS G13D (Homo sapiens, UniProt P01116+P62937, G13D); assay: as above; type: biochemical
Source text: as §2, §3, §4
as §3, with “BRAF^RBDD” for “BRAF^RBD”

KRAS WT = KRAS WT (Homo sapiens, UniProt P01116+P62937); assay: as above; type: biochemical
Source text: as §2, §3, §4
as §3, with “BRAF^RBDD” for “BRAF^RBD”

NRAS G12C = NRAS G12C (Homo sapiens, UniProt P01111+P62937, G12C); assay: as above; type: biochemical
Source text: as §2, §3, §4
as §3, with “BRAF^RBDD” for “BRAF^RBD”

[1] = KRAS G12V, read-out: KRAS G12V FRET data IC50
[2] = read-out: KRAS G12C FRET data, IC50
[3] = read-out: KRAS G12D FRET data, IC50
[4] = read-out: KRAS G12S FRET data, IC50
[5] = read-out: KRAS G13C FRET data, IC50
[6] = KRAS G13D, read-out: KRAS G13D FRET data IC50
[7] = KRAS WT, read-out: KRAS WT FRET data IC50
[8] = NRAS G12C, read-out: NRAS G12C FRET data IC50

Sequence of KRAS G13C (P01116 1-169 isoform P01116-2 G13C): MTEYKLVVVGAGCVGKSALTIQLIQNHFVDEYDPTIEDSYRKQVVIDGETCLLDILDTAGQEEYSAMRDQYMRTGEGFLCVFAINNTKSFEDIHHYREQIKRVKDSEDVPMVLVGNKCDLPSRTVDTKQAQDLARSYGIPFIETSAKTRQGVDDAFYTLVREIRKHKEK
Sequence of KRAS G13C (P62937 whole entry): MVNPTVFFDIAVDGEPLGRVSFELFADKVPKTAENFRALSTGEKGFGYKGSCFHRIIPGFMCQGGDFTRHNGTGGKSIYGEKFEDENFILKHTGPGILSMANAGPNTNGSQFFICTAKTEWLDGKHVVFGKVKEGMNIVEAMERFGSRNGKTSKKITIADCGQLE
Sequence of KRAS G12S (P01116 1-169 isoform P01116-2 G12S limits assumed): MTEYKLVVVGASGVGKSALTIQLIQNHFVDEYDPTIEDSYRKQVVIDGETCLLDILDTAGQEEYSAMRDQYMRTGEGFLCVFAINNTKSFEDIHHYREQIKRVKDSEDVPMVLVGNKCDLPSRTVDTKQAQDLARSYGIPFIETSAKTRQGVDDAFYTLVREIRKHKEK
Sequence of KRAS G12S (P62937 whole entry): as the sequence (P62937 whole entry) above
Sequence of KRAS G12C (P01116 1-169 isoform P01116-2 G12C): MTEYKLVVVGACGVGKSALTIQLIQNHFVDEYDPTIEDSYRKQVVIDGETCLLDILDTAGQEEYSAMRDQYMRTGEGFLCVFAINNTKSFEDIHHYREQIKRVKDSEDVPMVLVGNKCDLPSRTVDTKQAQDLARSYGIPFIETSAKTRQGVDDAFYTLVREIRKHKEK
Sequence of KRAS G12C (P62937 whole entry): as the sequence (P62937 whole entry) above
Sequence of KRAS G13D (P01116 1-169 isoform P01116-2 G13D limits assumed): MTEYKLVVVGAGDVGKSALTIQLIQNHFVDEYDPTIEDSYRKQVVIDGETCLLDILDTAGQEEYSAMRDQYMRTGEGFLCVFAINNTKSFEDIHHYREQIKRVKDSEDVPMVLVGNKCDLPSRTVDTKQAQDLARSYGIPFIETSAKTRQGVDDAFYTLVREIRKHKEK
Sequence of KRAS G13D (P62937 whole entry): as the sequence (P62937 whole entry) above
Sequence of KRAS WT (P01116 1-169 isoform P01116-2 limits assumed): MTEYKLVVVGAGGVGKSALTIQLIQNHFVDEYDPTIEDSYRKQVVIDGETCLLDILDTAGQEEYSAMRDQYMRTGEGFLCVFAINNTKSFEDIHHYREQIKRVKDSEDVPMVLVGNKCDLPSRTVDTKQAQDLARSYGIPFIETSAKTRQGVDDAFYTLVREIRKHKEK
Sequence of KRAS WT (P62937 whole entry): as the sequence (P62937 whole entry) above
Sequence of NRAS G12C (P01111 whole entry G12C): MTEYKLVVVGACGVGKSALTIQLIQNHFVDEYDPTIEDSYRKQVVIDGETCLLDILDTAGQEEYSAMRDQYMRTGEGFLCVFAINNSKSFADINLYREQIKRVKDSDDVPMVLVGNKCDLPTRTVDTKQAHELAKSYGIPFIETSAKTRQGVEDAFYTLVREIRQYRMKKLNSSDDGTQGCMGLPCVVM
Sequence of NRAS G12C (P62937 whole entry): as the sequence (P62937 whole entry) above
Sequence of KRAS G12V (P01116 1-169 isoform P01116-2 G12V limits assumed): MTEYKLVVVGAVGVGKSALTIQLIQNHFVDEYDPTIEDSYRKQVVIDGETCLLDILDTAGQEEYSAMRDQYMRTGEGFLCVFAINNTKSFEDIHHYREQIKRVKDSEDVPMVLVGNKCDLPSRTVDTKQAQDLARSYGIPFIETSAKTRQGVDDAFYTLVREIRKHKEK
Sequence of KRAS G12V (P62937 whole entry): as the sequence (P62937 whole entry) above
Sequence of KRAS G12D (P01116 1-169 isoform P01116-2 G12D limits assumed): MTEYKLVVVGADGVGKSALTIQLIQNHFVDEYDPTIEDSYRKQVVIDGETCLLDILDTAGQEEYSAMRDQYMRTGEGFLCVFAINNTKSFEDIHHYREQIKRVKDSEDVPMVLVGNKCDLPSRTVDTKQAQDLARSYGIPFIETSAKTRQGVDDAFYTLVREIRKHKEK
Sequence of KRAS G12D (P62937 whole entry): as the sequence (P62937 whole entry) above

- IC50 (KRAS G12V; [1]): 0.01 to 0.1 µM
SMILES: CCn1c(-c2cccnc2[C@H](C)OC)c2c3cc(ccc31)-c1cc(O)cc(c1)C[C@H](NC(=O)[C@H](C(C)C)N(C)C(=O)C1(F)CC1)C(=O)N1CCC[C@H](N1)C(=O)OCC(C)(C)C2 [Example A165]
- IC50 (Capan-1 (K-Ras G12V)): 0.01 to 0.1 µM

- IC50 (NCI-H358 (K-Ras G12C)): > 10 µM
- IC50 (KRAS G12C; [2]): 0.1 to 1 µM
- IC50 (KRAS G12D; [3]): 0.1 to 1 µM
- IC50 (KRAS G12S; [4]): 0.1 to 1 µM
- IC50 (KRAS G12V; [1]): 1 to 10 µM
- IC50 (KRAS G13C; [5]): 0.1 to 1 µM
- IC50 (KRAS G13D; [6]): 0.1 to 1 µM
- IC50 (KRAS WT; [7]): 0.1 to 1 µM
- IC50 (NRAS G12C; [8]): 0.1 to 1 µM
SMILES: CCn1c(-c2cccnc2COC)c2c3cc(ccc31)-c1cc(O)cc(c1)C[C@H](NC(=O)[C@H](C(C)C)N(C)C(=O)[C@H]1CCNC1)C(=O)N1CCC[C@H](N1)C(=O)OCC(C)(C)C2 [Example A32]

- IC50 (NCI-H358 (K-Ras G12C)): 1 to 10 µM
- IC50 (KRAS G12C; [2]): 0.1 to 1 µM
- IC50 (KRAS G12D; [3]): 1 to 10 µM
- IC50 (KRAS G12S; [4]): 0.1 to 1 µM
- IC50 (KRAS G12V; [1]): 0.1 to 1 µM
- IC50 (KRAS G13C; [5]): 0.1 to 1 µM
- IC50 (KRAS G13D; [6]): 0.1 to 1 µM
- IC50 (KRAS WT; [7]): 0.1 to 1 µM
- IC50 (NRAS G12C; [8]): 0.1 to 1 µM
SMILES: CCn1c(-c2cccnc2[C@H](C)OC)c2c3cc(ccc31)-c1cc(O)cc(c1)C[C@H](NC(=O)C1CCCC1C(F)F)C(=O)N1CCC[C@H](N1)C(=O)OCC(C)(C)C2 (stereo partly drawn) [Example A254]

- IC50 (NCI-H358 (K-Ras G12C)): 1 to 10 µM
- IC50 (KRAS G12C; [2]): 1 to 10 µM
- IC50 (KRAS G12D; [3]): > 10 µM
- IC50 (KRAS G12S; [4]): 1 to 10 µM
- IC50 (KRAS G12V; [1]): 1 to 10 µM
- IC50 (KRAS G13C; [5]): > 10 µM
- IC50 (KRAS G13D; [6]): > 10 µM
- IC50 (KRAS WT; [7]): 1 to 10 µM
- IC50 (NRAS G12C; [8]): 1 to 10 µM
SMILES: CCn1c(-c2cccnc2[C@H](C)OC)c2c3cc(ccc31)-c1cccc(c1)C[C@H](NC(=O)[C@H](C(C)C)N(C)C(=O)[C@H]1CCN(C(C)=O)C1)C(=O)N1CCC[C@H](N1)C(=O)OCC(C)(C)C2 [Example A60]

The next lines start with the molecule.

SMILES: CCn1c(-c2cnccc2COC)c2c3cc(ccc31)-c1cc(O)cc(c1)C[C@H](NC(=O)[C@@H](OC(=O)N(C)C)C(C)C)C(=O)N1CCC[C@H](N1)C(=O)OCC(C)(C)C2 [Example A53]
- IC50 (NCI-H358 (K-Ras G12C)): 1 to 10 µM
- IC50 (KRAS G12C; [2]): 0.1 to 1 µM
- IC50 (KRAS G12D; [3]): > 10 µM
- IC50 (KRAS G12S; [4]): 1 to 10 µM
- IC50 (KRAS G12V; [1]): 1 to 10 µM
- IC50 (KRAS G13C; [5]): 1 to 10 µM
- IC50 (KRAS G13D; [6]): 1 to 10 µM
- IC50 (KRAS WT; [7]): 1 to 10 µM
- IC50 (NRAS G12C; [8]): 1 to 10 µM

SMILES: CCn1c(-c2cnccc2COC)c2c3cc(ccc31)-c1cc(O)cc(c1)C[C@H](NC(=O)[C@H](C(C)C)N(C)C(=O)[C@H]1CCN(S(=O)(=O)N3CC(N)C3)C1)C(=O)N1CCC[C@H](N1)C(=O)OCC(C)(C)C2 [Example A35]
- IC50 (NCI-H358 (K-Ras G12C)): 0.1 to 1 µM
- IC50 (KRAS G12C; [2]): 0.1 to 1 µM
- IC50 (KRAS G12D; [3]): 1 to 10 µM
- IC50 (KRAS G12S; [4]): 0.1 to 1 µM
- IC50 (KRAS G12V; [1]): 0.1 to 1 µM
- IC50 (KRAS G13C; [5]): 0.1 to 1 µM
- IC50 (KRAS G13D; [6]): 0.1 to 1 µM
- IC50 (KRAS WT; [7]): 0.1 to 1 µM
- IC50 (NRAS G12C; [8]): 0.1 to 1 µM

SMILES: CCn1c(-c2cnccc2COC)c2c3cc(ccc31)-c1cc(O)cc(c1)C[C@H](NC(=O)[C@H](C(C)C)N(C)C(=O)OC1CCOC1)C(=O)N1CCC[C@H](N1)C(=O)OCC(C)(C)C2 (stereo partly drawn) [Example A50, oxolan-3-yl-N-[(1S)-1-{[(8S,14S)-22-ethyl-4-hydroxy-21-[4-(methoxymethyl)pyridin-3-yl]-18,18-dimethyl-9,15-dioxo-16-oxa-10,22,28-triazapentacyclo[18.5.2.1^2,6.1^10,14.0^23,27]nonacosa-1(26),2,4,6(29),20,23(27),24-heptaen-8-yl]carbamoyl}-2-methylpropyl]-N-methylcarbamate]
- IC50 (NCI-H358 (K-Ras G12C)): 1 to 10 µM
- IC50 (KRAS G12C; KRAS G12C FRET data, IC50): 0.1 to 1 µM
- IC50 (KRAS G12D; KRAS G12D FRET data, IC50): 1 to 10 µM
- IC50 (KRAS G12S; KRAS G12S FRET data, IC50): 1 to 10 µM
- IC50 (KRAS G12V; KRAS G12V FRET data IC50, KRAS G12V): 1 to 10 µM
- IC50 (KRAS G13C; KRAS G13C FRET data, IC50): 1 to 10 µM
- IC50 (KRAS G13D; KRAS G13D FRET data IC50, KRAS G13D): 1 to 10 µM
- IC50 (KRAS WT; KRAS WT FRET data IC50, KRAS WT): 0.1 to 1 µM
- IC50 (NRAS G12C; NRAS G12C FRET data IC50, NRAS G12C): 1 to 10 µM

SMILES: CCn1c(-c2cnccc2COC)c2c3cc(ccc31)-c1cc(O)cc(c1)C[C@H](NC(=O)[C@H](C(C)C)N(C)C(=O)[C@H]1CCN(C(=O)C(C)(C)N(C)C)C1)C(=O)N1CCC[C@H](N1)C(=O)OCC(C)(C)C2 [Example A8]
- IC50 (Capan-1 (K-Ras G12V)): 1 to 10 µM

SMILES: CCn1c(-c2cnccc2COC)c2c3cc(ccc31)-c1cc(O)cc(c1)C[C@H](NC(=O)[C@H](C(C)C)N1CCCCC1=O)C(=O)N1CCC[C@H](N1)C(=O)OCC(C)(C)C2 [Example A44]
- IC50 (NCI-H358 (K-Ras G12C)): 1 to 10 µM
- IC50 (KRAS G12C; [2]): 0.1 to 1 µM
- IC50 (KRAS G12D; [3]): 1 to 10 µM
- IC50 (KRAS G12S; [4]): 1 to 10 µM
- IC50 (KRAS G12V; [1]): 0.1 to 1 µM
- IC50 (KRAS G13C; [5]): 1 to 10 µM
- IC50 (KRAS G13D; [6]): 1 to 10 µM
- IC50 (KRAS WT; [7]): 0.1 to 1 µM
- IC50 (NRAS G12C; [8]): 0.1 to 1 µM
